In test [1] the test system is experimental autoimmune encephalomyelitis (EAE). The test can be described thus: experimental autoimmune encephalomyelitis (EAE) in mice. Particulars: C57BL/6 mice, MOG35-55 in CFA, 150 mg/kg QD or BID. Type of test: in vivo.
A further test deals with CD4+ human T cells. Description: cytokine secretion by CD4+ human T cells stimulated with anti-CD3/CD28. Type of test: cell-based. The text has this: Activation of resting T cells, resulting in cytokine secretion and proliferation, involves two distinct signals from antigen-presenting cells (APCs), mimicked by co-stimulation of the T cell receptor (TCR)/CD3 complex and the CD28 receptor. […] Under the same conditions, the inhibition of IFN-γ and IL-2 was not observed (FIG. 2).

The target in another test is ROCK1 (Homo sapiens (Human), UniProt Q13464). Description: Invitrogen Z'-LYTE kinase assay, ROCK1 inhibition. It is filed as biochemical. Particulars: 5 uM ATP.
For a further test, the target named is ROCK2 (Homo sapiens (Human), UniProt O75116). The test can be described thus: Invitrogen Z'-LYTE kinase assay, ROCK2 inhibition. It is filed as biochemical. The note with it: ROCK2 0.8 ug/mL, 12 uM ATP.
For a further test, the target named is rat VEGFR2 (Rattus norvegicus (Rat), UniProt O08775). Description: Biacore analysis of binding to rat VEGFR2. Particulars: rat antigen. On the procedure: The binding constants of Mab 147 and Mab 149 as well as the parent Mab 160 for human, murine, and rat VEGFR2 were determined by Biacore analysis (Table 4).
In general terms: SPR reads the build-up and loss of mass on a sensor chip optically.

The target in another test is human VEGFR2 (Homo sapiens (Human), UniProt P35968). The test can be described thus: Biacore analysis of binding to human VEGFR2. Particulars: human antigen.
A further test addresses murine VEGFR2 (Mus musculus (Mouse), UniProt P35918). The test can be described thus: Biacore analysis of binding to murine VEGFR2. Particulars: murine antigen.

Where “and” joins values, the source holds several entries; their conditions need not be identical. Equal entries are not always repeated. Entries after “also recorded” stand apart in the source; their conditions may differ.

Chain of ROCK2 (O75116 whole entry): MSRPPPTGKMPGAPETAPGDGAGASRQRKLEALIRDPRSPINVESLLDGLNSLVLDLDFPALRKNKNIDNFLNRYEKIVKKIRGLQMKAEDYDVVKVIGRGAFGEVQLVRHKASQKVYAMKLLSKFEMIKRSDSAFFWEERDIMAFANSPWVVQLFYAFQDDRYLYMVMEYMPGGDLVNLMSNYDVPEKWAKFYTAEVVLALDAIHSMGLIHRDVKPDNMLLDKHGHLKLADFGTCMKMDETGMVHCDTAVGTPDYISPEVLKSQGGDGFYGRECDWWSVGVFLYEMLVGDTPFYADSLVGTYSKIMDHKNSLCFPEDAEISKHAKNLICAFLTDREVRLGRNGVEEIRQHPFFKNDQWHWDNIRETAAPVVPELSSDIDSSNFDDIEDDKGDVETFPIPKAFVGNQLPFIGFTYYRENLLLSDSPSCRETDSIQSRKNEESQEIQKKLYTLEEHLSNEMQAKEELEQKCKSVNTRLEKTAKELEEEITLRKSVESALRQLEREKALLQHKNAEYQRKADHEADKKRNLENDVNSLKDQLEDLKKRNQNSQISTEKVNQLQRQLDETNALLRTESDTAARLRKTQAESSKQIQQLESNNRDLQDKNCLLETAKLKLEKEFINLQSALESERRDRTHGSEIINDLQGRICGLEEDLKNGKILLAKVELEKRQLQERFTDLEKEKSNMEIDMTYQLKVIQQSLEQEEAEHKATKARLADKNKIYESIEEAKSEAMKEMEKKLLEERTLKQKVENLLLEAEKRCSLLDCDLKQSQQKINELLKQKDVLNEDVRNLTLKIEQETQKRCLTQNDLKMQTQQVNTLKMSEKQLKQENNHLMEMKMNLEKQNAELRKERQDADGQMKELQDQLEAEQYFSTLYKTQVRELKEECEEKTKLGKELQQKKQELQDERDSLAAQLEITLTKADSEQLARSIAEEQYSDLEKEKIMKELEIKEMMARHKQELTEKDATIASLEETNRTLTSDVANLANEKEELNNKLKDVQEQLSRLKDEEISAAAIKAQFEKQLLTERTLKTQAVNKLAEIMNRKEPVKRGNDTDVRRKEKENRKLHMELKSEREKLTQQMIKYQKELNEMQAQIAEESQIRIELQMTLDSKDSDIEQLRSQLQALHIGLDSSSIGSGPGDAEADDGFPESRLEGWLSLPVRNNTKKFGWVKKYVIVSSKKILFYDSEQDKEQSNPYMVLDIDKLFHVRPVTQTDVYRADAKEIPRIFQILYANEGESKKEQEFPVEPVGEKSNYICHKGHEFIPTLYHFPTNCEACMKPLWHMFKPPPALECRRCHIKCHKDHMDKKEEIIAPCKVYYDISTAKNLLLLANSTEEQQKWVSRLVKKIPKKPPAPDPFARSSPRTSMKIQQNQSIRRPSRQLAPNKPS
Chain of ROCK1 (Q13464 whole entry): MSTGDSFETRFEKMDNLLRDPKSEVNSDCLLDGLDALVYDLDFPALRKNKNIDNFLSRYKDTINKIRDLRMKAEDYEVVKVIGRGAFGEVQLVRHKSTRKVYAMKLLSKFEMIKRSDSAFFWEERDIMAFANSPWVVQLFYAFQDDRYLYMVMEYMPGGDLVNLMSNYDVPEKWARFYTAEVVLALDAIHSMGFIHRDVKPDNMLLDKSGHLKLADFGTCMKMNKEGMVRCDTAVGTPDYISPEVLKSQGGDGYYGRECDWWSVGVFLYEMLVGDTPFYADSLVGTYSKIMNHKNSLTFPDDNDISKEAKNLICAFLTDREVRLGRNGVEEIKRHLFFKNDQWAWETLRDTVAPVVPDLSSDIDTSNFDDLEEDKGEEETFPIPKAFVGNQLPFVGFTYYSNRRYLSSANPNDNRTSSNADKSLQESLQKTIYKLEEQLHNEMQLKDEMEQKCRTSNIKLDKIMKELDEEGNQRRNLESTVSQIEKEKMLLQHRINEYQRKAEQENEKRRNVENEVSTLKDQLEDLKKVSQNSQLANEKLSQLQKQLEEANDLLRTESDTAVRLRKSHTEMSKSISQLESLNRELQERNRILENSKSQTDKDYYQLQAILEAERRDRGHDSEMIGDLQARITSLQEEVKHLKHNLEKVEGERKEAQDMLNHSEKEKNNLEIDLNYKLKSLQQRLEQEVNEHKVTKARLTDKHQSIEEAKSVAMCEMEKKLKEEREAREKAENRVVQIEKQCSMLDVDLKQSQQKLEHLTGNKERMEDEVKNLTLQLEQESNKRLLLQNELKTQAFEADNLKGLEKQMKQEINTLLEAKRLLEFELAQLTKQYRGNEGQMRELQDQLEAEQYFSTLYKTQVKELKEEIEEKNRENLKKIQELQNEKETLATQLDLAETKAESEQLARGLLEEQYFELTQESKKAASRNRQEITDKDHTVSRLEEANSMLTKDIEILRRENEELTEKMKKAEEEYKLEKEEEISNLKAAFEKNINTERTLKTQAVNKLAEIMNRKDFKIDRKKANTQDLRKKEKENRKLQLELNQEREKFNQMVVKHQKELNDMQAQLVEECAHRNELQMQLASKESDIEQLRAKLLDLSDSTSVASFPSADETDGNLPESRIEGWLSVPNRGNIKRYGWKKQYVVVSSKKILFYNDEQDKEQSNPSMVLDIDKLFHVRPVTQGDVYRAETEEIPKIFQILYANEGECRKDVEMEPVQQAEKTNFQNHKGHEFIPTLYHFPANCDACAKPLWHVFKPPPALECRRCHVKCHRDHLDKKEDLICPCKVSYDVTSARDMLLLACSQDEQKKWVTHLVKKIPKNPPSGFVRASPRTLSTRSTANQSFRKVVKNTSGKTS
Chain of murine VEGFR2 (P35918 20-1345): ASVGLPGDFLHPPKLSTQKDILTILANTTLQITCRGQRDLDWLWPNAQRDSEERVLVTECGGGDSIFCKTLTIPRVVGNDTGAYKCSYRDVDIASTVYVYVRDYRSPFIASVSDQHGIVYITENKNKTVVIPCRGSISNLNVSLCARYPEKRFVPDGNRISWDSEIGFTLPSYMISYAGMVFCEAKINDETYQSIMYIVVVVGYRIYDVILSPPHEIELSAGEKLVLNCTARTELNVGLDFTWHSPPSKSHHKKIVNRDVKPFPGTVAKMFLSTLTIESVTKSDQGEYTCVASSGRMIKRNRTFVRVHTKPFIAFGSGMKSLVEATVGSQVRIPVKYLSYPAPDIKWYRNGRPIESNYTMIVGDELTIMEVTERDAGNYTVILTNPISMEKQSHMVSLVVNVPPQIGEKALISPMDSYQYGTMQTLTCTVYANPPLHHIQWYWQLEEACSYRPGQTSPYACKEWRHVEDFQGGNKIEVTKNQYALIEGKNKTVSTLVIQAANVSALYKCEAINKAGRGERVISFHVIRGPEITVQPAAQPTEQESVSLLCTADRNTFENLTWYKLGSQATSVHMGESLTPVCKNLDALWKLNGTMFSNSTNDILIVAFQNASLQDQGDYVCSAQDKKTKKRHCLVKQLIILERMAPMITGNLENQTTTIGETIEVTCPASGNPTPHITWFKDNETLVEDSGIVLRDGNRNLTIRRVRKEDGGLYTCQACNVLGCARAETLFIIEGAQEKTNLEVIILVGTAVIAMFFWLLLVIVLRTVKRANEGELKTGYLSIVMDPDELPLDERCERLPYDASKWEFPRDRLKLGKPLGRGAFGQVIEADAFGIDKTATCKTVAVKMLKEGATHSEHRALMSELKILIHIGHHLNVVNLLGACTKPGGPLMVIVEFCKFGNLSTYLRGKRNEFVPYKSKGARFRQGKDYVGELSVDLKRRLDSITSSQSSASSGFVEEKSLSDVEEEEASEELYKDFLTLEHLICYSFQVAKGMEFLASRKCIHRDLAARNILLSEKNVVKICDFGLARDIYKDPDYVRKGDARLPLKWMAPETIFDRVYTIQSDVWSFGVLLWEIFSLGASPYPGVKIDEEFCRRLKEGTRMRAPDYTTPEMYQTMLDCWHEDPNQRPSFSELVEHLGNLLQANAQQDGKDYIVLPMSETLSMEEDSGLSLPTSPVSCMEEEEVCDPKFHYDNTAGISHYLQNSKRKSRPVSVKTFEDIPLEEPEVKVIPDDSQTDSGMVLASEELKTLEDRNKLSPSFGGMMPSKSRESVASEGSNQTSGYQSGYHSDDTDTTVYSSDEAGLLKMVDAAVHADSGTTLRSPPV
Text for ROCK1: (§1) Dose response curves for Rho-kinase inhibition were derived from a Invitrogen Z′-LYTE™ Kinase Assay Kit (Invitrogen catalog number PV3793). Purified active ROCK1 and ROCK2 were obtained from Invitrogen (catalog numbers ROCK1, PV3691 and ROCK2, PV3759). The kit components include a coumarin and fluorescein labeled peptide based on myosin light chain 2 ([sequence]), a proprietary protease containing development reagent and a proprietary Stop buffer used to terminate the development reaction. The inhibitory activities of compounds are measured according to the manufactures protocol. Briefly, decreasing concentrations of test compounds or the known ROCK inhibitor Y-27963, are added, from 10 uM to 2.56×10^−5 uM to reaction buffer containing 50 mM HEPES pH 7.5, 10 mM MgCl2, 5 mM EGTA, and 0.05% Brij-35 and of ROCK1 at 0.18 ug/mL or ROCK2 at 0.8 ug/mL in assay dilution buffer. This mixture is overlayed into a white 96-well half area plate and the reaction is initiated with the addition of 5 uM ATP for ROCK1 or 12 uM ATP for ROCK2. The assay proceeds at room temperature for 1 hour followed by the addition of development reagent, and further incubation for 1 hour at room temperature. STOP reagent is then added and the reaction and immediately the coumarin and fluorescein emission signals are read on a Tecan Infinite M1000 fluorescence plate reader (excitation: 400 nm; emission 445 and 520 nm, respectively). By comparing the emission ratios of the test samples against control samples, percent phosphorylation values are calculated and the concentration of inhibitor that produces ½ inhibition of kinase activity (IC50) is determined using Prism.
Text for ROCK2: as §1

Turning to `COc1ccc2c(c1)CN(c1nccc(Nc3ccc4[nH]ncc4c3)n1)C2` [Example 1, N-(2-(5-Methoxyisoindolin-2-yl)pyrimidin-4-yl)-1H-indazol-5-amine], the “EAE paralysis / mean clinical score” value in test [1] is “reduces paralysis”. Further, in test [1] (listed as compound 1), the “EAE paralysis / mean clinical score” value is “substantial improvement”. Further, in the test on CD4+ human T cells, the IFN-γ secretion entry is listed as “not observed”, the IL-2 secretion result was “not observed”, the IL-17 secretion result is “dose-dependent; also recorded: significantly inhibited” and the IL-21 secretion result is listed as “inhibits; also recorded: significantly inhibited”.

Take `c1ccc2c(c1)CN(c1nccc(Nc3ccc4[nH]ncc4c3)n1)C2` [Example 2, N-(2-(Isoindolin-2-yl)pyrimidin-4-yl)-1H-indazol-5-amine]: at ROCK1, the half-inhibitory concentration (IC50) is > 10 µM.

As for `COc1ccc2c(c1)CN(c1ccnc(Nc3ccc4[nH]ncc4c3)n1)C2` [Example 8, N-(4-(5-Methoxyisoindolin-2-yl)pyrimidin-2-yl)-1H-indazol-5-amine], the half-inhibitory concentration (IC50) on ROCK1 is > 10 µM.

In the case of `Clc1ccc2c(c1)CN(c1nccc(Nc3ccc4[nH]ncc4c3)n1)C2` [Example 10, N-(2-(5-Chloroisoindolin-2-yl)pyrimidin-4-yl)-1H-indazol-5-amine], the concentration for half-maximal inhibition (IC50) against ROCK1 is > 10 µM.

In the case of `COc1ccc2c(c1)CCN(c1nccc(Nc3ccc4[nH]ncc4c3)n1)C2` [Example 11, N-(2-(6-Methoxy-3,4-dihydroisoquinolin-2(1H)-yl)pyrimidin-4-yl)-1H-indazol-5-amine], on ROCK1, the half-maximal inhibitory concentration (IC50) was > 10 µM.

Consider `c1cc(Nc2ccc3[nH]ncc3c2)nc(N2CCc3sccc3C2)n1` [Example 12, N-(2-(6,7-Dihydrothieno[3,2-c]pyridin-5(4H)-yl)pyrimidin-4-yl)-1H-indazol-5-amine], for which the IC50 on ROCK1 is > 10 µM.

With `COc1ccc2c(c1)CN(c1cc(Nc3ccc4[nH]ncc4c3)ncn1)C2` [Example 13, N-(6-(5-Methoxyisoindolin-2-yl)pyrimidin-4-yl)-1H-indazol-5-amine], the IC50 against ROCK1 was > 10 µM.

On to `COc1ccc2c(c1)CN(c1cc(Nc3ccc4[nH]ncc4c3)nc(C)n1)C2` [Example 14, N-(6-(5-Methoxyisoindolin-2-yl)-2-methylpyrimidin-4-yl)-1H-indazol-5-amine], for which the IC50 on ROCK2 was 0.13 to 0.18 µM; at ROCK1 it was > 10 µM.

As to `c1cc2c(cn1)CN(c1nccc(Nc3ccc4[nH]ncc4c3)n1)C2` [Example 15, N-(2-(1H-Pyrrolo[3,4-c]pyridin-2(3H)-yl)pyrimidin-4-yl)-1H-indazol-5-amine], the IC50 against ROCK1 is > 10 µM.

With `COc1ccc2c(c1)CN(c1nc(C)c(C)c(Nc3ccc4[nH]ncc4c3)n1)C2` [Example 16, N-(2-(5-Methoxyisoindolin-2-yl)-5,6-dimethylpyrimidin-4-yl)-1H-indazol-5-amine], the half-inhibitory concentration (IC50) against ROCK2 is > 0.01 µM.

Consider `c1ccc2c(c1)CN(c1nc3c(c(Nc4ccc5[nH]ncc5c4)n1)COC3)C2` [Example 17, N-(1H-Indazol-5-yl)-2-(isoindolin-2-yl)-5,7-dihydrofuro[3,4-d]pyrimidin-4-amine], for which the half-inhibitory concentration (IC50) against ROCK1 is > 10 µM.

Regarding `COc1ccc2c(c1)CN(c1nccc(Nc3ccncc3)n1)C2` [Example 19, 2-(5-Methoxyisoindolin-2-yl)-N-(pyridin-4-yl)pyrimidin-4-amine], the half-maximal inhibitory concentration (IC50) against ROCK2 and against ROCK1 was > 10 µM throughout.

As for `COc1ccc2c(c1)CN(c1nccc(Nc3ccc(-c4ccncc4)cc3)n1)C2` [Example 20, 2-(5-Methoxyisoindolin-2-yl)-N-(4-(pyridin-4-yl)phenyl)pyrimidin-4-amine], the IC50 on ROCK1 was > 10 µM.

As for `COc1ccc2c(c1)CN(c1nc3c(c(Nc4ccc5[nH]ncc5c4)n1)COCC3)C2` [Example 21, N-(1H-Indazol-5-yl)-2-(5-methoxyisoindolin-2-yl)-7,8-dihydro-5H-pyrano[4,3-d]pyrimidin-4-amine], the IC50 was 0.185 µM on ROCK2 and > 10 µM on ROCK1.

Take `COc1ccc2c(c1)CN(c1nc3c(c(Nc4ccc5[nH]ncc5c4)n1)CNC3)C2` [Example 22, N-(1H-Indazol-5-yl)-2-(5-methoxyisoindolin-2-yl)-6,7-dihydro-5H-pyrrolo[3,4-d]pyrimidin-4-amine]: the half-inhibitory concentration (IC50) against ROCK2 was 24.3 µM and 24 µM.

For the molecule `COc1ccc2c(c1)CN(c1nc3c(c(Nc4ccc5[nH]ncc5c4)n1)CCNC3)C2` [Example 24, N-(1H-Indazol-5-yl)-2-(5-methoxyisoindolin-2-yl)-5,6,7,8-tetrahydropyrido[3,4-d]pyrimidin-4-amine], at ROCK1, inhibition was half-maximal at 2.5 µM (IC50).

`COc1ccc2c(c1)CN(c1nc3c(c(Nc4ccc5[nH]ncc5c4)n1)CCN(C)C3)C2` [Example 25, N-(1H-Indazol-5-yl)-2-(5-methoxyisoindolin-2-yl)-7-methyl-5,6,7,8-tetrahydropyrido[3,4-d]pyrimidin-4-amine]: the half-inhibitory concentration (IC50) on ROCK2 was 0.13 µM; against ROCK1, > 10 µM.

With `N#Cc1ccc2c(c1)CN(c1nccc(Nc3ccc4[nH]ncc4c3)n1)C2` [Example 26, 2-(4-((1H-Indazol-5-yl)amino)pyrimidin-2-yl)isoindoline-5-carbonitrile], the IC50 against ROCK2 is 0.123 µM; on ROCK1, > 10 µM.

Take `COCc1ccc2c(c1)CN(c1nccc(Nc3ccc4[nH]ncc4c3)n1)C2` [Example 27, N-(2-(5-(Methoxymethyl)isoindolin-2-yl)pyrimidin-4-yl)-1H-indazol-5-amine]: the half-inhibitory concentration (IC50) against ROCK2 came out at 0.1 µM; at ROCK1, 6.73 µM.

The molecule `Fc1cccc2c1CN(c1nccc(Nc3ccc4[nH]ncc4c3)n1)C2` [Example 29, N-(2-(4-Fluoroisoindolin-2-yl)pyrimidin-4-yl)-1H-indazol-5-amine] registered a half-maximal inhibitory concentration (IC50) at ROCK2 of 0.88 µM.

For `Fc1ccc2c(c1)CN(c1nc3c(c(Nc4ccc5[nH]ncc5c4)n1)COC3)C2` [Example 30, 2-(5-Fluoroisoindolin-2-yl)-N-(1H-indazol-5-yl)-5,7-dihydrofuro[3,4-d]pyrimidin-4-amine], the IC50 against ROCK1 is > 10 µM.

As for `COc1nc(N2Cc3ccccc3C2)nc(Nc2ccc3[nH]ncc3c2)c1OC` [Example 32, N-(2-(Isoindolin-2-yl)-5,6-dimethoxypyrimidin-4-yl)-1H-indazol-5-amine], the concentration for half-maximal inhibition (IC50) at ROCK2 is 0.607 µM; against ROCK1, > 10 µM.

B1: Mab 149: affinity matured anti-VEGFR2 antibody derived from Mab 138; VH SEQ ID NO:216, VL SEQ ID NO:220 (antibody, V domains shown)
VH: EVQLLESGGGLVQPGGSLRLSCAASGFTFSWYVMGWVRQAPGKGLEWVSSIYPSGGATNYADSVKGRFTISRDNSKNTLYLQMNSLRAEDTAVYYCARGNYLDYWGQGTLVTVSS
VL: DIQMTQSPGTLSLSPGEGATLSCRASQSVSSNYFGWYQQKPGQAPRLLIYGASSRATGIPDRFSGSGSGTDFTLTISRLEPEDSAVYYCQQFDSSPLSFGGGTKVEIKR
modifications: Mutated library sequence
B1: the ka was found to be 3.32E+04 in the test with rat VEGFR2, 8.62E+04 in the test with human VEGFR2 and 2.29E+04 with murine VEGFR2. In addition, the values for the kd with rat VEGFR2, with human VEGFR2 and with murine VEGFR2 were 1.43E−03, 6.59E−04 and 1.81E−03, respectively.

The term IC50 denotes the concentration at which inhibition is half-maximal. Low values mean greater potency, high ones weaker potency.
